Test results from article PMC12664080, “Tetrazole-containing naphthalene bis-sulfonamide Keap1-Nrf2 interaction inhibitors with unexpected binding modes” (Redox Biology, 2025).
Where “and” joins values, the source holds several entries; their conditions need not be identical. Identical values can stand only once.

Assays:
Keap1 Kelch domain = biological target: T1, Keap1 Kelch domain (Homo sapiens, UniProt Q14145); assay: Fluorescence polarisation (FP) competition assay; assay type: binding
T1 construct: made in house
Experimental: The FP assays were carried out according to previously described methods [[23],[31], [32], [33], [34]]. […] Following incubation under slow agitation (30 min at rt in the absence of light), the plates were transferred to a PHERAstar microplate reader and the FP was recorded. All measurements were recorded in triplicate. The data were normalised to the control and then fitted to a standard four-parameter logistic function using the Origin Pro software.

Keap1-mCherry = assay: Keap1-Glow Cellular Thermal Shift Assay (CETSA), U2OS cell lysates; assay type: cell-based; settings: 10 μM, 1 h at 37 °C
Experimental: U2OS FRT/TO cells with doxycycline-inducible expression of Keap1-mCherry or mCherry were treated with 0.5 μg/mL of doxycycline for 72–96 h to induce the expression of the fluorescent proteins. Lysates of U2OS cells with doxycycline-inducible expression of Keap1-mCherry or mCherry were prepared by lysing in DPBS with EDTA-free protease inhibitor cocktail (PIC) using at least 22 strokes of the Dounce homogenizer. The lysates were cleared by centrifugation at 9600×g for 5 min at 22 °C and incubated with 10 μM compound 25 or vehicle (0.4 % DMSO) for 1 h at 37 °C [46]. The lysates were then heated for 3 min at the indicated range of temperatures (39 °C–72 °C, with 3 °C increments) using a thermal cycler, and the aggregated material was removed by a high-speed centrifugation at 17,000×g at 4 °C for 40 min or 15,000×g at 4 °C for 1 h. The soluble fractions were transferred to 96-well white opaque plates, and the fluorescence (580 nm excitation wavelength (20 nm excitation bandwidth), 635 nm emission wavelength (35 nm emission bandwidth)) was measured using a plate reader (TECAN Spark 10 M).

[1] = EXSY NMR of cis/trans rotamer exchange; assay type: physicochemical
Source text: A series of pseudo-3D EXSY spectra were then acquired for compound 25 in D2O at temperatures of 280, 290, 300, 310 and 320 K (700 MHz, pulse sequence adapted from noesygpphpr and available on request, 1 s recycle delay, 13 mixing times from 5 to 1000 ms, acquisition times of 367 ms and 52 ms and spectra widths of 16 ppm and 3.5 ppm for direct and indirect dimensions respectively). Spectra were processed with linear prediction and cosine-squared window functions. For each temperature, methoxy singlet resonances were selected for analysis, and the intensities of the diagonal ( IAA and IBB ) and cross peaks ( IAB and IBA ) were fitted to Eq. (1) as a function of the mixing time, T, to determine the exchange rates kAB and kBA [41]. The ‘A’ state was defined to be the more shielded signal. Reported uncertainties were obtained from the non-linear fitting procedure.(1) (IAAIABIBAIBB)(T)=exp[(−R1,A−kABkBAkAB−R1,B−kBA)T]·(IA000IB0)
Exchange rates kAB and kBA were used to determine the relative populations pA=kBA/kAB+kBA and pB=kAB/kAB+kBA and were fitted to van't Hoff and Eyring equations (with unit transmission coefficient) to estimate the enthalpy and entropy changes and enthalpy and entropy of activation.

Keap1 = Keap1 (Homo sapiens, UniProt Q14145); assay: Microscale thermophoresis (MST)
Keap1, sequence (Q14145 322-609): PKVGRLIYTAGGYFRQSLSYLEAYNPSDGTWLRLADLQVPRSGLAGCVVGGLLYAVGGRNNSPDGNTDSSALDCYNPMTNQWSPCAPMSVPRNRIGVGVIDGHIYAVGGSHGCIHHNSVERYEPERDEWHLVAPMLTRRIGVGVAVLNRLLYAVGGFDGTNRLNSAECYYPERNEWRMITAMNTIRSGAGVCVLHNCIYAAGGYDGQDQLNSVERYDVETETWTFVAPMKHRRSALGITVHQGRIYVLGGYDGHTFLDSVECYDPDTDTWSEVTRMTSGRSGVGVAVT
Experimental: Keap1 was labelled using the Protein Labelling Kit RED-NHS 2nd Generation (NanoTemper, München, Germany). Keap1 was diluted to 2 μM in RED-NHS Labelling Buffer. 10 μg of RED-NHS 2nd Generation labelling dye was freshly dissolved in 25 μL of DMSO to yield a concentration of 600 μM, then further diluted in RED-NHS Labelling Buffer to 300 μM. A volume of 20 μL of the 300 μM labelling dye was thoroughly mixed with 180 μL of 2 μM Keap1 and incubated at rt in a dark environment for 3 h. […] The sample was transferred to the centre of the resin bed in the B-column. 550 μL of Keap1 MST buffer was pipetted into the B-column and allowed to enter completely, followed by elution of the sample with 450 μL of Keap1 MST buffer and the flow-through was collected into a 1.5 mL Eppendorf tube. The collected sample was centrifuged at 15,000×g for 10 min at 4 °C to remove aggregates. Protein concentration in the collected sample was determined using the NanoDrop spectrophotometer. The sample was then tested in MST pre-test to evaluate the labelling quality.
Labelled Keap1 was diluted to 20 nM in Keap1 MST buffer prior to the reaction setup. […] An equal volume of 20 nM Keap1 was thoroughly mixed with each diluted sample and incubated for 30 min at rt. […] An equal volume of 2 nM Keap1 was mixed with each diluted sample and incubated at rt for 30 min. Incubated samples were loaded into Monolith NT.115 standard capillaries and measured using the Monolith NT.115^Pico instrument in triplicate. Parameters and measurements were set and controlled by the MO.Control software and collected datasets were analysed using the MO.Affinity Analysis software.

T1 sequence (Q14145 322-609): as above

**Q.** For `COc1ccc(S(=O)(=O)N(CC(=O)O)c2ccc(N(Cc3nnn[nH]3)S(=O)(=O)c3ccc(OC)cc3)c3ccccc23)cc1` [Compound 25, N-(4-((N-((1H-tetrazol-5-yl)methyl)-4-methoxyphenyl)sulfonamido)naphthalen-1-yl)-N-((4-methoxyphenyl)sulfonyl)glycine], which IC50 (Keap1 Kelch domain; 200 nM Keap1 Kelch domain, 1 nM FITC-β-DEETGEF-OH) is on record?
**A.** 31 ± 2 nM

**Q.** And the “FP IC50 fold lower than the bis-acid 2” value (Keap1 Kelch domain; vs 2)?
**A.** ~2 fold

**Q.** What about the “FP IC50 fold lower than the bis-tetrazole 13” value (Keap1 Kelch domain; vs 13) of the same compound?
**A.** ~2.5 fold

**Q.** What about the “Target engagement in the cellular environment (CETSA)” value (Keap1-mCherry) of the same compound?
**A.** confirmed

**Q.** What about the kA→B ([1]; D2O PBS buffer, 280 K, EXSY) of the same compound?
**A.** 0.1633 ± 0.0072 s⁻¹

**Q.** And the kA→B ([1]; D2O PBS buffer, 290 K, EXSY)?
**A.** 0.541 ± 0.013 s⁻¹

**Q.** And the kA→B ([1]; D2O PBS buffer, 300 K, EXSY)?
**A.** 1.432 s⁻¹ and 1.432 ± 0.033 s⁻¹

**Q.** And the kA→B ([1]; D2O PBS buffer, 310 K, EXSY)?
**A.** 3.26 ± 0.11 s⁻¹

**Q.** What about the kA→B ([1]; D2O PBS buffer, 320 K, EXSY) of the same compound?
**A.** 8.78 ± 0.39 s⁻¹

**Q.** What about the ΔHAB ([1]; D2O PBS buffer, pH* ~7.4, EXSY) of the same compound?
**A.** 1.43 ± 0.311 kcal/mol

**Q.** What about the “ΔH^‡AB” value ([1]; D2O PBS buffer, pH* ~7.4, EXSY) of the same compound?
**A.** 16.6 ± 0.22 kcal/mol

**Q.** What about the ΔSAB ([1]; D2O PBS buffer, pH* ~7.4, EXSY) of the same compound?
**A.** 16.8 ± 4.4 J/(K·mol)

**Q.** And the ΔS^‡AB ([1]; D2O PBS buffer, pH* ~7.4, EXSY)?
**A.** -11.3 ± 3 J/(K·mol)

**Q.** And the “ΔS^‡AB” value ([1]; D2O, EXSY, Eyring (Fig. 4D))?
**A.** −11.3 ± 3.0 J K^−1 mol^−1

**Q.** What about the ΔSAB ([1]; D2O, EXSY, van 't Hoff (Fig. 4C)) of the same compound?
**A.** 16.8 ± 4.4 J K^−1 mol^−1

**Q.** And the Kd (Keap1; 1 nM Keap1)?
**A.** 2.1 ± 0.5 nM

**Q.** And the Kd (Keap1; 10 nM Keap1)?
**A.** 24.3 ± 4.7 nM
